US8710045B2, “Agents for preventing and treating disorders involving modulation of the ryanodine receptors” (The Trustees of Columbia University in the City of New York, priority 2004, dated 2014)

How the values were obtained:
C57BL/6J mice = assay: S36 chronic exercise model: swimming velocity tracking and treadmill running; format: in vivo, mouse
Protocol: Drug Delivery: Eight-week-old, wild-type, weight-matched, C57BL/6J littermate mice were randomized to either S36 or vehicle treatment. On day −2, osmotic infusion pumps (Alzet Model 2004, 200 μl total volume, 0.25 μl/hr delivery, Durect, Cupertino, Calif.) filled with either 200 ul of PBS or 200 μl of S36 (10 μg/ul diluted in PBS) were implanted subcutaneously on the dorsal surface of the mice by a horizontal incision just behind the neck. Mice were allowed to recover for three days prior to the initiation of exercise. Standard food and water were provided ad libitum.
Exercise Protocols: Beginning on day 1, mice were exercised for three weeks by swimming 5 days/week and by running on a treadmill an additional 1 day/week.
Swimming Model: The daily swimming protocol consisted of swimming sessions twice-daily separated by one-hour rest periods. After an initial conditioning regimen lasting 5 days during which the swimming sessions were increased in 10 minute increments from 40 minutes each to 80 minutes each, the swimming sessions thereafter lasted 90 minutes each. A 30 cm wide by 30 cm long opaque acrylic tank was filled with tap water to a depth of at least 20 cm. Water was circulated and warmed to 32-34 degrees C. using a separate reservoir with heating element, thermostat, and pump. Compressed room air was bubbled from Tygon tubing with small needle holes placed at the bottom of the tank to agitate the water surface. 4 mice, matched pair-wise with respect to treatment group, swam at any one time in the tank.
In order to track the swimming activity of each individually identified mouse, a video tracking system was used (San Diego Instruments, San Diego, Calif.), which includes Sony CCD video recorder, DVD/Hard Drive, frame grabber card, and custom SMART 2.0 software with Social Behavior package capable of tracking up to 8 mice simultaneously under ideal conditions.) Mice were anesthetized by using 1.5% isoflurane in O2, and small, 0.75 cm, Velcro coins were sutured with 5-0 nylon suture to the scalp of each mouse. Plastic 1 cm colored dots, glued to the hook side of the Velcro, could be securely attached to the mouse and used for multiple subject tracking under appropriate lighting conditions. Each resultant mouse track in x,y, and time was analyzed and mean velocities, and distance swam over 2, 5, and 10 minute intervals was obtained.
Treadmill running: A Columbus Instruments (Columbus, Ohio) treadmill (Model: Exer-6M Treadmill with Treadmill Shock Detection Unit) with 6 lanes was used to run the mice. Mice were placed in their respective lanes at the lowest speed (7 meters/min) with the shocking apparatus turned off and allowed to adjust to the surroundings for 6 minutes. The forward half of the treadmill was covered with aluminum foil to block out light. A desk lamp illuminated the shocking area at the rear of the treadmill. After the adjustment period, the electric current was turned on, and the number of shocks delivered during the next two three minute intervals (training period) were recorded. The shock counter was then reset, the speed was increased to 10 m/min, and visits to the shocking area and shocks delivered to each mouse were recorded at three-minute intervals until the end of the experiment. At regular intervals, the speed of the treadmill was ramped up from the initial 10 m/min to as high as 36 m/min. The speed was increased no more than 2 m/min every 6 minutes. […]

PKA-phosphorylated RyR2 = biological target: T1, PKA-phosphorylated RyR2 (Homo sapiens, UniProt Q92736); assay: FKBP12.6 rebinding assay: FKBP12.6 binding to PKA-phosphorylated RyR2 in cardiac SR
T1 construct: from tissue
T1 sequence (Q92736 whole entry): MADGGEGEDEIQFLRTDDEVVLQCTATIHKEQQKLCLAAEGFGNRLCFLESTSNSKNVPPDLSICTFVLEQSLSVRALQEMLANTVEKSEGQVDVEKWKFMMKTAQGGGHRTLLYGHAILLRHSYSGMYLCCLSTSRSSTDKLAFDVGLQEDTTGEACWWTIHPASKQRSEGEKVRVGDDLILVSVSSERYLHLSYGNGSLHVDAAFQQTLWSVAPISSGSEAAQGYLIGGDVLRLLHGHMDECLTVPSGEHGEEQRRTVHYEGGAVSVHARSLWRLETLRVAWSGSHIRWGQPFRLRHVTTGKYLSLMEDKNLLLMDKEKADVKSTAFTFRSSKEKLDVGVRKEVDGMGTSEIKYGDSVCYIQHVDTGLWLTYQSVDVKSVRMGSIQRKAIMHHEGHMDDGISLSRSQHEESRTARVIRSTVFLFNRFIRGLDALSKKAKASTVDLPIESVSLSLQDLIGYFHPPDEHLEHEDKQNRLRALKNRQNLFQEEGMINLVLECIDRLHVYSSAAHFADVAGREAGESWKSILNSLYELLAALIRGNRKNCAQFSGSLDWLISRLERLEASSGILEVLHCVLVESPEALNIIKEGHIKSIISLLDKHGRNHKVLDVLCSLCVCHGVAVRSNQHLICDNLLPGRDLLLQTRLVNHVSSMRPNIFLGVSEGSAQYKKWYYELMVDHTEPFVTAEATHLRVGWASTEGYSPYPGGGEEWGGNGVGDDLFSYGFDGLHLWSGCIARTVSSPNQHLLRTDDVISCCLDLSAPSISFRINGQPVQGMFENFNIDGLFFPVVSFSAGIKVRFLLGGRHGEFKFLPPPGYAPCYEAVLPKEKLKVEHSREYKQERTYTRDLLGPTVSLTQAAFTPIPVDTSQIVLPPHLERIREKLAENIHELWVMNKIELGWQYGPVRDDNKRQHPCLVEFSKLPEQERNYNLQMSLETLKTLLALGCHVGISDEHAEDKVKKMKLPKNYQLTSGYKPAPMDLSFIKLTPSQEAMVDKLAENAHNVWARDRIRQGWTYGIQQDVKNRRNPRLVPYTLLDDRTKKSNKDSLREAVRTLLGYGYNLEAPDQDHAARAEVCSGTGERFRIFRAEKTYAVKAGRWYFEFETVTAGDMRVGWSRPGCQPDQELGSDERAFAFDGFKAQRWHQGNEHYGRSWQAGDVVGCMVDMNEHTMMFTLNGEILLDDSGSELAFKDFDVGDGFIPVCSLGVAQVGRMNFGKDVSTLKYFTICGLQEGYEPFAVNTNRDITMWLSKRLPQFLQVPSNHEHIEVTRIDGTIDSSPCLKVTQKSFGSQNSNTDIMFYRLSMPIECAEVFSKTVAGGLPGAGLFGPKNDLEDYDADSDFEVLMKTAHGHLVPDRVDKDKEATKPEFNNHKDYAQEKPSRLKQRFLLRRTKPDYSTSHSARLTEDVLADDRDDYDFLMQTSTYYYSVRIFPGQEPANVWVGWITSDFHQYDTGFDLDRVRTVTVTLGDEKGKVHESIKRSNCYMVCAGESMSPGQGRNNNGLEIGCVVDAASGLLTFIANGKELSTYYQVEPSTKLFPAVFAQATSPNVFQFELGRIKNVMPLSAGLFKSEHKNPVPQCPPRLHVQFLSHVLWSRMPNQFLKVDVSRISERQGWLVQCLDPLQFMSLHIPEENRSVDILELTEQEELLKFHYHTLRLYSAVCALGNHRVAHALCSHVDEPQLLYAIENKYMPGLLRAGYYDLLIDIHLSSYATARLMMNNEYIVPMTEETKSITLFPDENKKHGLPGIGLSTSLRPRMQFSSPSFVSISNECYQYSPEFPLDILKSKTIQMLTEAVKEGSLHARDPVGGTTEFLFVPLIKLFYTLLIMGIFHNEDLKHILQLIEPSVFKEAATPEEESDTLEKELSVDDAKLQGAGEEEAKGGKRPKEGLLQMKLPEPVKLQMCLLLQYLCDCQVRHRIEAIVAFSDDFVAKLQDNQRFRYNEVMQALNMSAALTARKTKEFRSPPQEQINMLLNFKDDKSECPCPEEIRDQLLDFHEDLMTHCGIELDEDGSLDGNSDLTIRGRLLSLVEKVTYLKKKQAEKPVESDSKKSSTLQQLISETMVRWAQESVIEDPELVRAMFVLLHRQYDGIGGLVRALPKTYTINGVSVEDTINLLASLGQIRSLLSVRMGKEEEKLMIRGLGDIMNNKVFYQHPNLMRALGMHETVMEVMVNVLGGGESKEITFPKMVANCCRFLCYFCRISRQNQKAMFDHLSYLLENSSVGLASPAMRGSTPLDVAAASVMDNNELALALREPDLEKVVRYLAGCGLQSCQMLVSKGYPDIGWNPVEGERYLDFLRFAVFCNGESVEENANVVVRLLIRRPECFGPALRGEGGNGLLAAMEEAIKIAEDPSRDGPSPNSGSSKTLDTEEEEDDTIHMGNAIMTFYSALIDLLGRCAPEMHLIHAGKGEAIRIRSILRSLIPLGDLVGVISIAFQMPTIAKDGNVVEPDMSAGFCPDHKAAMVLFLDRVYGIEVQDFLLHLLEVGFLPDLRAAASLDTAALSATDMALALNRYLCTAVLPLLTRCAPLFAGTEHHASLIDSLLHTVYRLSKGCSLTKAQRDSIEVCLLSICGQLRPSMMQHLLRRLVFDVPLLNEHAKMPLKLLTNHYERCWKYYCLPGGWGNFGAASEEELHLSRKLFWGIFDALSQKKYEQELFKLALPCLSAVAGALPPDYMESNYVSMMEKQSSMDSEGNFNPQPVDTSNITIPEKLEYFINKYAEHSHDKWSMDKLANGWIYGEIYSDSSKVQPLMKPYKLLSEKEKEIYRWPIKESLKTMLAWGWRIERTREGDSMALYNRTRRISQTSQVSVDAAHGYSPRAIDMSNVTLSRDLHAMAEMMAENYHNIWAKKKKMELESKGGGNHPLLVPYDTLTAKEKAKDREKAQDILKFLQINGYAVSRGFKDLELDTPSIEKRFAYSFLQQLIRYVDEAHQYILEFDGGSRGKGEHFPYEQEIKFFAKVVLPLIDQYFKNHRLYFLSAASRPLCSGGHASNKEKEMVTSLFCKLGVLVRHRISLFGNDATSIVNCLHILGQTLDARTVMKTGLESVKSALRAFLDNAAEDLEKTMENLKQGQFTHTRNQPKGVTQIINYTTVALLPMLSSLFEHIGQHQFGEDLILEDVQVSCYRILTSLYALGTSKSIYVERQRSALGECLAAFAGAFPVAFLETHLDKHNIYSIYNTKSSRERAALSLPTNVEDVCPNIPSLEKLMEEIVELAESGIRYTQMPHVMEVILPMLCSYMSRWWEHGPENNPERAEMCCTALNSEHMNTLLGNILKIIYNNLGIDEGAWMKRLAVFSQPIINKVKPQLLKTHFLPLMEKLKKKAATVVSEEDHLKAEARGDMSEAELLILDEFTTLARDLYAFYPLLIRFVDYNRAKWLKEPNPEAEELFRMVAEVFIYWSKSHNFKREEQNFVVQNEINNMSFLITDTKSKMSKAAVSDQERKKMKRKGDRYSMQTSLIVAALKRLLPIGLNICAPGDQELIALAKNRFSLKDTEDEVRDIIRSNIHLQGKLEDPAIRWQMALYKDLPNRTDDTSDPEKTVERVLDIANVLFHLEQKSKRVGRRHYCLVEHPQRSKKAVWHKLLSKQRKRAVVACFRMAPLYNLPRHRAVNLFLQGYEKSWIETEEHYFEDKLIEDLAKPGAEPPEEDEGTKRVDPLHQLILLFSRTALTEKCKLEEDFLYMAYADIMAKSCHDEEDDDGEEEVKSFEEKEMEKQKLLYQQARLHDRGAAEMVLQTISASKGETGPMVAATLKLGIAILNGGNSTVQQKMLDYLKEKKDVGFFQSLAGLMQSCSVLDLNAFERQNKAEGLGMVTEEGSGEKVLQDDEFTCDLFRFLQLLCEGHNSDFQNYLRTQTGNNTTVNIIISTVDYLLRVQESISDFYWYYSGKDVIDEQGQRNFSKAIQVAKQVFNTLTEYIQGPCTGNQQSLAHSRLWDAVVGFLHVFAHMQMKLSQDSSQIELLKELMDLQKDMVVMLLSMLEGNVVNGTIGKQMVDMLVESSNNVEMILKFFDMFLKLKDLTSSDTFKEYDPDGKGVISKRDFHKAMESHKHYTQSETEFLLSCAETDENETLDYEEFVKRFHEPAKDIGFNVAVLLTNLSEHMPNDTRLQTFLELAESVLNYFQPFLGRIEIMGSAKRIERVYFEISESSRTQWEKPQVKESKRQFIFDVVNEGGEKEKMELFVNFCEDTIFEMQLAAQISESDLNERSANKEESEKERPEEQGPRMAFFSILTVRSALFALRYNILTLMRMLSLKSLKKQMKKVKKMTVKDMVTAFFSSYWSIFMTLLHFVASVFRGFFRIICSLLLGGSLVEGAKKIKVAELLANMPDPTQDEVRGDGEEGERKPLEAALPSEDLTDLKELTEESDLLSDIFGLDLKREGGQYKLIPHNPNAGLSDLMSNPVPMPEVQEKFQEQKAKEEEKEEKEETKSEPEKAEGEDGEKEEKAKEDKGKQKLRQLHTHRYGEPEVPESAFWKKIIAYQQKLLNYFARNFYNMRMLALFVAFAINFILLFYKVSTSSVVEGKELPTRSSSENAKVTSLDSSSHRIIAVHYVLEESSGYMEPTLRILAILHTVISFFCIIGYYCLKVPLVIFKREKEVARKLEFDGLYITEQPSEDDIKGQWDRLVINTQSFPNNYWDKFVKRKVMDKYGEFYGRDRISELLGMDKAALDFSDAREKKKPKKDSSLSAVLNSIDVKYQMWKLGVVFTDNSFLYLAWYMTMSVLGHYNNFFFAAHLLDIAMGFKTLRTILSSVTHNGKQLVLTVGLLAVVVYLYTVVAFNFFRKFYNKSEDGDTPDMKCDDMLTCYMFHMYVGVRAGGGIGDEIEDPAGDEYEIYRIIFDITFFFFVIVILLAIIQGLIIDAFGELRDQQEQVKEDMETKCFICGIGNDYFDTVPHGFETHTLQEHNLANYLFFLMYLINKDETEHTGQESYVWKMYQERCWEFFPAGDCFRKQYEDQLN
T1 sequence (P68106 whole entry partner): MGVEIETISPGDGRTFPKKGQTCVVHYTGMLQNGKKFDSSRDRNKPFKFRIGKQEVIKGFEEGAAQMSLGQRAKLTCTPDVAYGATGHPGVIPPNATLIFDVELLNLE
Protocol: Samples are centrifuged at 95,000 g for 10 min and the pellets are washed three times in 0.2 ml imidazole buffer. The final pellets are pooled and resuspended in imidazole buffer (final concentration≈10 μg/μl). […] Samples then are centrifuged at 100,000 g for 10 minutes and pellets washed 3 times with imidizol buffer. […] Immunoblots are developed using an anti-FKBP antibody (1:3,000 dilution). […] The intracellular solution contains (in mM): CsCl, 60; CaCl2, 1; EGTA, 11; MgCl2, 1; K2ATP, 5; HEPES, 10; aspartic acid, 50; pH 7.4 (CsOH). Under these conditions, it is expected that the measured current was carried by Ba^2+ primarily through L-type calcium channels which is referred to as ICa,L. Drugs are applied by a local solution changer and reach the cell membrane within 1 s.
The FKBP12.6 rebinding assay described above is used to determine the amount of FKBP12.6 binding to PKA-phosphorylated RyR2 at various concentrations (0.5-1000 nM) of the compounds shown. EC50 values are calculated using Michaelis-Menten curve fitting.
The EC50 values are calculated using Michaelis-Menten curve fitting.

RyR [1] = assay: RyR immunoprecipitation from whole brain microsomes of exercised mice; format: in vivo, mouse; conditions: 21 days
Protocol: (§1) Tissue lysates were prepared by homogenizing the tissue (e.g., brain, cardiac, muscle) with Tissuemiser in 0.7 ml lysis buffer (pH 7.4, 10 mM HEPES, 1 mM EDTA, 20 mM NaF, 2 mM Na3 VO4, 320 mM sucrose, and protease inhibitors) and centrifuged for 15 min at 4,000×g at 4° C. The supernatant was then centrifuged for 15 min at 10,000×g at 4° C. For brain homogenates, the supernatant was centrifuged at 50,000×g at 4° C. for 30 minutes, and the pellet (microsomes) was resuspended in homogenization buffer which was supplemented with 0.9% NaCl. For brain tissue, the resuspended pellet was used for immunoprecipitation of RyR. For cardiac and muscle tissue homogenates, the supernatant of the 10,000×g spin was used for immunoprecipitation of the RyR. Protein concentrations were measured by Bradford protein assay. The sample was frozen at −80° C. until use.
100 μg of microsomes were brought to a volume of 500 μl with modified RIP A buffer (50 mM Tris-HCl (PH 7.4), 0.9% NaCl, 5.0 mM NaF, 1.0 mM Na3VO4, 0.5% TritonX100, and protease inhibitors). […] The sample was incubated with 40 μl of Protein A Sepharose beads and rotated for 1 hr at 4° C. […]
Ryanodine receptor (types 1 and 2) was immunoprecipitated from whole brain microsomes. Immunoprecipitates were separated by 4-20% PAGE and analyzed for total RyR, PKA phosphorylated RyR, and calstabin.

RyR [2] = assay: Calstabin binding to RyR in brain after isoproterenol infusion (RyR immunoprecipitation, western blot)
Protocol: as §1
100 μg of microsomes were brought to a volume of 500 μl with modified RIP A buffer (50 mM Tris-HCl (PH 7.4), 0.9% NaCl, 5.0 mM NaF, 1.0 mM Na3VO4, 0.5% TritonX100, and protease inhibitors). […]
Experiments were performed to determine whether the compounds described herein cross the blood brain barrier and enhance binding of cal stab in to ryanodine receptors in the brain. […] RyR was immunoprecipitated using an antibody to RyR, and the presence of calstabin in the immunoprecipitates was detected using an antibody to calstabin.

RyR1 = biological target: T2, RyR1 (Mus musculus, UniProt E9PZQ0); assay: Analysis of ryanodine receptor complex from EDL after chronic exercise (immunoprecipitation, immunoblot); format: in vivo; conditions: chronic exercise protocol
T2 construct: RyR1 was immunoprecipitated from soleus muscle homogenates of mice following 21 days of exercise; from tissue; host or cells: mouse hind-limb skeletal muscle (soleus, EDL; SR microsomes for bilayer recording)
Protocol: Analysis of Ryanodine Receptor Complex: 10 mg muscle samples were isotonically lysed. […] The samples were incubated with protein A Sepharose beads (Amersham Pharmacia) at 4° C. for 1 h, after which the beads were washed three times with buffer. Proteins were separated on SDS-PAGE gels (4-20% gradient) and transferred onto nitrocellulose membranes overnight (SemiDry transfer blot, Bio-Rad). After incubation with blocking solution (LICOR Biosciences, Lincoln Nebr.) to prevent non-specific antibody binding and a wash in Tris-buffered saline with 0.1% Tween-20, membranes were incubated for 1-2 h at room temperature with primary antibodies anti-calstabin (1:2500 in blocking buffer), anti-RyR (5029, 1:5,000), or anti-phospho-RyR2-pSer2809 (1:5000), which detects PKA-phosphorylated mouse RyR1-pSer2844 and RyR2-pSer2808, anti-PDE4D3 (1:1000). After three washes, membranes were incubated with infrared labeled secondary antibodies (1:10,000 dilution, LICOR Biosystems). Band densities were quantified using the Odyssey Infrared Imaging System (LICOR Biosciences).

Compound	swimming velocity vs PBS (C57BL/6J mice; day 1 of exercise)	swimming velocity and treadmill distance/fatigue time vs PBS (C57BL/6J mice; day 7 of exercise)	swimming velocity vs PBS (C57BL/6J mice; day 14)	treadmill running performance vs PBS (C57BL/6J mice; day 14)	treadmill running performance vs PBS (C57BL/6J mice; day 16)	potency at increasing the binding of FKBP12.6 and RyR2 compared with JTV-519 (PKA-phosphorylated RyR2)	EC50 (PKA-phosphorylated RyR2; compound 0.5-1000 nM, Michaelis-Menten curve fitting)	binding of calstabin to RyR in whole brain microsomes (RyR [1])	blood brain barrier penetration (RyR [2]; mice)	in vivo binding of calstabin to RyR (RyR [2]; mid-brain and cerebellum, after isoproterenol infusion for 5 days)	Calstabin1 depletion from RyR1 (RyR1)
COc1ccc2c(c1)CN(C(=O)C(=O)O)CCS2 [S36]	no substantial difference	no substantial difference	no significant difference	trend toward improved performance	trend toward improved performance	more potent	15 nM	–	–	–	–
COc1ccc2c(c1)CN(C)CCS2 [S107]	–	–	–	–	–	–	–	restores the binding of calstabin to RyR	crosses the blood brain barrier	restores in vivo binding of calstabin to RyR	nearly entirely reversed
